For orientation: NOAEL means the highest dose or exposure tested at which no adverse effect was seen.

The values that follow come from EPA's ToxValDB 9.5 (doi:10.2903/j.efsa.2005.33ar).

The subject of one data set is Rattus norvegicus. Conditions: for NOAEL: reproduction developmental.
For another data set, the system named is Bibionidae. Conditions: chronic/long-term; duration: 26 days.
The test system of the next data set is Bird. Conditions: acute; oral; unspecified; mortality.
A further data set deals with Canidae. Conditions: chronic; duration: 1 years; Dog Other; body weight.
The subject of another data set is Daphnia magna. Conditions: chronic/long-term; duration: 21 days; mobility.
For a further data set, the system named is Oryctolagus sp. Conditions: reproduction developmental; body weight.
For another data set, the system named is Apis mellifera. To be noted: acute, dermal, mortality.
The next data set concerns Landoltia sp. To be noted: chronic/long-term; biomass.
In the next data set the test system is Aphidius rhopalosiphi. Conditions: not reported; mortality.

Molecules are shown by their SMILES.

Consider `CC1(C)CC/C(=C\c2ccc(Cl)cc2)C1(O)Cn1cncn1` (stereo not drawn) [Triticonazole], for which the LD50 was more than 2000 mg/kg in the data set on Rattus norvegicus (acute, mortality); more than 693 mg/kg with Colinus virginianus (acute, oral, diet, mortality); more than 2000 mg/kg with Bird; more than 156 µg/piece in the data set on Apis mellifera; more than 100 µg/piece in the data set on Apis mellifera (duration: 48 hours). Moreover, the NOAEL in the data set on Rattus norvegicus (F) was 48 mg/kg-day; with Rattus norvegicus (M) it was 49 mg/kg-day; in the data set with Colinus virginianus (reproduction developmental) it was 19.5 mg/kg-day; with Canidae, 2.5 mg/kg-day; with Oryctolagus sp. it was 5 mg/kg-day. The NOEC amounted to 0.0777 mg/L with Bibionidae; 0.092 mg/L in the data set with Daphnia magna; 0.01 mg/L in the data set with Oncorhynchus mykiss (chronic/long-term, duration: 28 days, growth); 0.33 mg/L in the data set with Landoltia sp.; 500 mg/kg in the data set on Tagia sp. (chronic/long-term, duration: 56 days, reproduction). The LC50 with Oncorhynchus mykiss (acute, duration: 96 hours, mortality) is more than 3.6 µg/mL; in the data set on Tagia sp. (acute, duration: 14 days, mortality), more than 1000 mg/kg. Further, the LEL in the data set on Aphidius rhopalosiphi was 25 g/ha.
